Experiments:
3T3-L1 Mouse Adipocytes = experiment: Free fatty acid levels in cultured 3T3-L1 mouse adipocytes (isoproterenol stimulated); format: cell-based; details: free fatty acid in medium; 5 μM peptide, 20-22 h pre-incubation then 3 h with 0.1 nM isoproterenol; isoproterenol alone = 100%
In short: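 3T3-L1 cells differentiated 12 days, insulin withdrawn, then peptides added on day 13 at 5 μM (0.1% DMSO) for 20-22 h at 37° C. After 3 h in assay buffer, medium free fatty acids read at 540 nm. Values expressed as percent of 0.1 nM isoproterenol-alone control.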

C2C12 Cells = experiment: Glucose utilization in cultured C2C12 cells (myotubes); format: cell-based, mouse; details: glucose concentration in medium relative to untreated cells; 5 μM peptide, 22 h
In short: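 Differentiated mouse myotubes (5 days in 2% horse serum) serum-starved 5 h, then treated 22 h at 37 °C with peptide at 5 μM final (0.1% DMSO) in low-glucose (1 g/L) DMEM. Glucose remaining in medium measured colorimetrically at 570 nm. Expressed as percent of untreated control, from 2–3 experiments in triplicate.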

H4-IIE Cells = experiment: Glucose production in cultured H4-IIE cells; format: cell-based, rat; details: glucose concentration in medium relative to untreated cells; 5 μM peptide, 24 h
In short: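 Rat H4-IIE hepatoma cells primed overnight in glucose-free DMEM with 2 mM pyruvate and 10 mM lactate, then treated 24 h at 37 °C with 5 μM peptide (0.1% DMSO; concentration assumes ~2000 Da). Medium glucose measured colorimetrically at 570 nm. Values are percent of untreated-cell glucose production; 0.5-1 nM insulin served as inhibitor reference.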

| Substance | Percent of Isoproterenol Control Activity (3T3-L1 Mouse Adipocytes) [%] | Percent of Control Activity (C2C12 Cells) [%] | Percent of Control Activity (H4-IIE Cells) [%] |
| --- | --- | --- | --- |
| 156 (MVVHWMSGVGLPWLWGVGV) [compound 156] | 97 | 85 | 106 |
| 157 (MVVKGPLSEGGHPWGREGIWL) [compound 157] | 106 | 102 | 109 |
| 158 (MWEEAGRMSEGCLG) [compound 158] | 96 | 106 | 127 |
| 159 (MWGVSDMLVFLEV) [compound 159] | 100 | 102 | 111 |
| 160 (MWLGVGLGWVG) [compound 160] | 102 | 94 | 102 |
| 161 (MWLIEEYAMSDF) [compound 161] | 99 | 103 | 114 |
| 162 (MWLVLWLWML) [compound 162] | 106 | 103 | 113 |
| 163 (MWMPPTLPHIR) [compound 163] | 87 | 105 | 110 |
| 164 (MWNDLLQCSEP) [compound 164] | 116 | 102 | 109 |
| 165 (MWRVLGALWW) [compound 165] | 108 | 95 | 125 |
| 166 (MWSHPSHHSTINITNKWLL) [compound 166] | 96 | 105 | 105 |
| 168 (MYCNWDCSGE) [compound 168] | 108 | 103 | 120 |
| 169 (MYLNGTCSAS) [compound 169] | 110 | 107 | 109 |
| 170 (MYNYAKAPTL) [compound 170] | 95 | 106 | 109 |
| 171 (MYRHLQQTLMKATK) [compound 171] | 104 | 110 | 100 |
| 172 (MYTNKQCSTSNYY) [compound 172] | 94 | 106 | 111 |
| 173 (MYTPTNNVQPVTTTNQRP) [compound 173] | 114 | 95 | 103 |
| 174 (MYYSDGYWGVSWGMGV) [compound 174] | 105 | 93 | 110 |
| 176 (MKNIEAPLAW) [compound 176] | 95 | 103 | 108 |
| 177 (MRMGASIGSTTRLSTS) [compound 177] | 94 | 91 | 111 |
| 178 (MVQTVSISWASEMLVLVSFVVSV) [compound 178] | 90 | 99 | 108 |
| 179 (MSSSMMGEVASC) [compound 179] | 102 | 105 | 100 |
| 180 (MVVGSWCWSLSWVVGMR) [compound 180] | 101 | 103 | 106 |
| 181 (MCHWAGGASNTGDA) [compound 181] | 103 | 107 | 109 |
| 182 (MFAVSMMWSLE) [compound 182] | 92 | 98 | 113 |
| 183 (MMKVDATMDFT) [compound 183] | 94 | 101 | 121 |

Reference: patent US20220332774A1, “THERAPEUTIC MITOCHONDRIAL PEPTIDES” (priority 2019, published 2022)
